Tests used:
[1] = tested on: Puccinia recondita f. Sp. Tritici; assay: Puccinia recondita f. sp. tritici / wheat / leaf disc preventative (brown rust); assay type: in vivo; conditions: foliar, 200 ppm in the applied formulation, wheat leaf segments cv. Kanzler, preventative (inoculated 1 day after application), compared to untreated, read-out: disease control
In short: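 Compound, diluted from DMSO solution into aqueous 0.025% Tween20, is sprayed at 200 ppm onto cut wheat segments (cv. Kanzler) placed on water agar. One day on, segments receive a fungal spore suspension and are incubated at 19° C., 75% rh, 12 h photoperiod, with % control vs untreated scored at 7–9 days.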

[2] = tested on: Glomerella lacenarium (Colletotrichum lagenarium); assay: Glomerella lagenarium liquid culture / cucumber / preventative (anthracnose); assay type: cell-based; conditions: Colletotrichum orbiculare; 20 ppm in the applied formulation; liquid culture (PDB), growth inhibition measured photometrically 3 to 4 days after application; compared to untreated; read-out: disease control
In short: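 Conidia from cryogenic storage were mixed into potato dextrose broth. This was added to compound diluted from DMSO into 0.025% Tween20, tested at 20 ppm. Plates were incubated in the dark at 24 °C and 96% relative humidity, and growth was read photometrically after 2–7 days as % activity versus untreated check.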

[3] = tested on: Puccinia recondita f. Sp. Tritici; assay: Puccinia recondita f. sp. tritici / wheat / leaf disc curative (brown rust); assay type: in vivo; conditions: foliar, 24 h, 200 ppm in the applied formulation, wheat leaf segments cv. Kanzler, curative (applied 1 day after inoculation), compared to untreated, read-out: disease control
In short: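 Curative leaf-segment test, cv. Kanzler: spore inoculation, dark storage 19° C/75% RH, compound spray 1 day post-inoculation. Then 12 h light/12 h dark, 19° C, 75% RH. Read-out: % disease control vs untreated check, 6–8 d after application.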

Phakopsora pachyrhizi = Phakopsora pachyrhizi / soybean / leaf disc preventative (Asian soybean rust); assay type: in vivo; conditions: foliar, 200 ppm in the applied formulation, soybean leaf disks, compared to untreated, read-out: disease control
Description: Leaf disks or leaf segments of various plant species are cut from plants grown in a greenhouse. The cut leaf disks or segments are placed in multiwell plates (24-well format) onto water agar. The leaf disks are sprayed with a test solution before (preventative) or after (curative) inoculation. Compounds to be tested are prepared as DMSO solutions (max. 10 mg/ml) which are diluted to the appropriate concentration with 0.025% Tween20 just before spraying. The inoculated leaf disks or segments are incubated under defined conditions (temperature, relative humidity, light, etc.) according to the respective test system. A single evaluation of disease level is carried out 3 to 14 days after inoculation, depending on the pathosystem. Percent disease control relative to the untreated check leaf disks or segments is then calculated.
Soybean leaf disks are placed on water agar in multiwell plates (24-well format) and sprayed with the formulated test compound diluted in water. One day after application leaf discs are inoculated by spraying a spore suspension on the lower leaf surface. After an incubation period in a climate cabinet of 24-36 hours in darkness at 20° C. and 75% rh leaf disc are kept at 20° C. with 12 h light/day and 75% rh. The activity of a compound is assessed as percent disease control compared to untreated when an appropriate level of disease damage appears in untreated check leaf disks (12 to 14 days after application).
The following compounds at 200 ppm in the applied formulation give at least 80% disease control in this test when compared to untreated control leaf disks under the same conditions, which show extensive disease development.

CCCC(=O)NCc1ccc(-c2noc(C(F)(F)F)n2)cc1F [Compound 1.36, N-[[2-fluoro-4-[5-(trifluoromethyl)-1,2,4-oxadiazol-3-yl]phenyl]methyl]butanamide]
≥ 80%: pest or weed control at 200 ppm [1] | inhibition of growth at 20 ppm [2] | pest or weed control at 200 ppm [3] | pest or weed control at 200 ppm (Phakopsora pachyrhizi)

CCCCCC(=O)NCc1ccc(-c2noc(C(F)(F)F)n2)cc1 [Compound 1.8, N-[[4-[5-(trifluoromethyl)-1,2,4-oxadiazol-3-yl]phenyl]methyl]hexanamide]
≥ 80%: pest or weed control at 200 ppm [1] | inhibition of growth at 20 ppm [2] | pest or weed control at 200 ppm [3] | pest or weed control at 200 ppm (Phakopsora pachyrhizi)

CCC(C)C(=O)NCc1ccc(-c2noc(C(F)(F)F)n2)cc1F (stereo not drawn) [Compound 1.41, N-[[2-fluoro-4-[5-(trifluoromethyl)-1,2,4-oxadiazol-3-yl)phenyl]methyl]-2-methyl-butanamide]
≥ 80%: pest or weed control at 200 ppm [1] | inhibition of growth at 20 ppm [2] | pest or weed control at 200 ppm [3] | pest or weed control at 200 ppm (Phakopsora pachyrhizi)

COCCC(=O)NCCc1ccc(-c2noc(C(F)(F)F)n2)cc1 [Compound 1.85, 3-methoxy-N-[2-[4-[5-(trifluoromethyl)-1,2,4-oxadiazol-3-yl]phenyl]ethyl]propanamide]
≥ 80%: pest or weed control at 200 ppm [1] | inhibition of growth at 20 ppm [2] | pest or weed control at 200 ppm [3] | pest or weed control at 200 ppm (Phakopsora pachyrhizi)

CCCC(=O)NCCc1ccc(-c2noc(C(F)(F)F)n2)cc1 [Compound 1.84, N-[2-[4-[5-(trifluoromethyl)-1,2,4-oxadiazol-3-yl]phenyl]ethyl]butanamide]
≥ 80%: pest or weed control at 200 ppm [1] | inhibition of growth at 20 ppm [2] | pest or weed control at 200 ppm [3] | pest or weed control at 200 ppm (Phakopsora pachyrhizi)

CCONC(=O)NCc1ccc(-c2noc(C(F)(F)F)n2)cc1 [Compound 3.14, 1-ethoxy-3-[[4-[5-(trifluoromethyl)-1,2,4-oxadiazol-3-yl]phenyl]methyl]urea]
≥ 80%: pest or weed control at 200 ppm [1] | inhibition of growth at 20 ppm [2] | pest or weed control at 200 ppm [3] | pest or weed control at 200 ppm (Phakopsora pachyrhizi)

COCCCC(=O)NCCc1ccc(-c2noc(C(F)(F)F)n2)cc1 [Compound 1.89, 4-methoxy-N-[2-[4-[5-(trifluoromethyl)-1,2,4-oxadiazol-3-yl]phenyl]ethyl]butanamide]
≥ 80%: pest or weed control at 200 ppm [1] | inhibition of growth at 20 ppm [2] | pest or weed control at 200 ppm [3] | pest or weed control at 200 ppm (Phakopsora pachyrhizi)

O=C(NCc1ccc(-c2noc(C(F)(F)F)n2)cc1)OCCCCl [Compound 2.16, 3-chloropropyl N-[[4-[5-(trifluoromethyl)-1,2,4-oxadiazol-3-yl]phenyl]methyl]carbamate]
≥ 80%: pest or weed control at 200 ppm [1] | inhibition of growth at 20 ppm [2] | pest or weed control at 200 ppm [3] | pest or weed control at 200 ppm (Phakopsora pachyrhizi)

CCCC(=O)NCc1ccc(-c2noc(C(F)(F)F)n2)c(F)c1 [Compound 1.78, N-[[3-fluoro-4-[5-(trifluoromethyl)-1,2,4-oxadiazol-3-yl]phenyl]methyl]butanamide]
≥ 80%: pest or weed control at 200 ppm [1] | inhibition of growth at 20 ppm [2] | pest or weed control at 200 ppm [3] | pest or weed control at 200 ppm (Phakopsora pachyrhizi)

O=C(CC(F)(F)F)NCc1ccc(-c2noc(C(F)(F)F)n2)c(F)c1 [Compound 1.44, 3,3,3-trifluoro-N-[[3-fluoro-4-[5-(trifluoromethyl)-1,2,4-oxadiazol-3-yl]phenyl]methyl]propanamide]
≥ 80%: pest or weed control at 200 ppm [1] | inhibition of growth at 20 ppm [2] | pest or weed control at 200 ppm [3] | pest or weed control at 200 ppm (Phakopsora pachyrhizi)

N#CCC(=O)NCCc1ccc(-c2noc(C(F)(F)F)n2)cc1 [Compound 1.90, 2-cyano-N-[2-[4-[5-(trifluoromethyl)-1,2,4-oxadiazol-3-yl]phenyl]ethyl]acetamide]
≥ 80%: pest or weed control at 200 ppm [1] | inhibition of growth at 20 ppm [2] | pest or weed control at 200 ppm [3] | pest or weed control at 200 ppm (Phakopsora pachyrhizi)

CONC(=O)NCc1ccc(-c2noc(C(F)(F)F)n2)cc1 [Compound 3.17, 1-methoxy-3-[[4-[5-(trifluoromethyl)-1,2,4-oxadiazol-3-yl]phenyl]methyl]urea]
≥ 80%: pest or weed control at 200 ppm [1] | inhibition of growth at 20 ppm [2] | pest or weed control at 200 ppm [3] | pest or weed control at 200 ppm (Phakopsora pachyrhizi)

CC(=O)NCCc1ccc(-c2noc(C(F)(F)F)n2)cc1 [Compound 1.92, N-[2-[4-[5-(trifluoromethyl)-1,2,4-oxadiazol-3-yl]phenyl]ethyl]acetamide]
≥ 80%: pest or weed control at 200 ppm [1] | inhibition of growth at 20 ppm [2] | pest or weed control at 200 ppm [3] | pest or weed control at 200 ppm (Phakopsora pachyrhizi)

CC(C)(C)CC(=O)NCc1ccc(-c2noc(C(F)(F)F)n2)cc1 [Compound 1.15, 3,3-dimethyl-N-[[4-[5-(trifluoromethyl)-1,2,4-oxadiazol-3-yl]phenyl]methyl]butanamide]
≥ 80%: pest or weed control at 200 ppm [1] | inhibition of growth at 20 ppm [2] | pest or weed control at 200 ppm [3] | pest or weed control at 200 ppm (Phakopsora pachyrhizi)

C=CCCC(=O)NCc1ccc(-c2noc(C(F)(F)F)n2)cc1 [Compound 1.7, N-[[4-[5-(trifluoromethyl)-1,2,4-oxadiazol-3-yl]phenyl]methyl]pent-4-enamide]
≥ 80%: pest or weed control at 200 ppm [1] | inhibition of growth at 20 ppm [2] | pest or weed control at 200 ppm [3] | pest or weed control at 200 ppm (Phakopsora pachyrhizi)

O=C(NCc1ccc(-c2noc(C(F)(F)F)n2)cc1)OCCCl [Compound 2.17, 2-chloroethyl N-[[4-[5-(trifluoromethyl)-1,2,4-oxadiazol-3-yl]phenyl]methyl]carbamate]
≥ 80%: pest or weed control at 200 ppm [1] | inhibition of growth at 20 ppm [2] | pest or weed control at 200 ppm [3] | pest or weed control at 200 ppm (Phakopsora pachyrhizi)

CC(=O)NCc1ccc(-c2noc(C(F)(F)F)n2)cc1F [Compound 1.48, N-[[2-fluoro-4-[5-(trifluoromethyl)-1,2,4-oxadiazol-3-yl]phenyl]methyl]acetamide]
≥ 80%: pest or weed control at 200 ppm [1] | inhibition of growth at 20 ppm [2] | pest or weed control at 200 ppm [3] | pest or weed control at 200 ppm (Phakopsora pachyrhizi)

COCC(=O)NCc1ccc(-c2noc(C(F)(F)F)n2)c(F)c1F [Compound 1.56, N-[[2,3-difluoro-4-[5-(trifluoromethyl)-1,2,4-oxadiazol-3-yl]phenyl]methyl]-2-methoxy-acetamide]
≥ 80%: pest or weed control at 200 ppm [1] | inhibition of growth at 20 ppm [2] | pest or weed control at 200 ppm [3] | pest or weed control at 200 ppm (Phakopsora pachyrhizi)

CC(C)OC(=O)NCc1ccc(-c2noc(C(F)(F)F)n2)cc1 [Compound 2.14, isopropyl N-[[4-[5-(trifluoromethyl)-1,2,4-oxadiazol-3-yl]phenyl]methyl]carbamate]
≥ 80%: pest or weed control at 200 ppm [1] | inhibition of growth at 20 ppm [2] | pest or weed control at 200 ppm [3] | pest or weed control at 200 ppm (Phakopsora pachyrhizi)

O=C(NCc1ccc(-c2noc(C(F)(F)F)n2)cc1)OCCF [Compound 2.15, 2-fluoroethyl N-[[4-[5-(trifluoromethyl)-1,2,4-oxadiazol-3-yl]phenyl]methyl]carbamate]
≥ 80%: pest or weed control at 200 ppm [1] | inhibition of growth at 20 ppm [2] | pest or weed control at 200 ppm [3] | pest or weed control at 200 ppm (Phakopsora pachyrhizi)

C=CCNC(=O)NCc1ccc(-c2noc(C(F)(F)F)n2)cc1 [Compound 3.16, 1-allyl-3-[[4-[5-(trifluoromethyl)-1,2,4-oxadiazol-3-yl]phenyl]methyl]urea]
≥ 80%: pest or weed control at 200 ppm [1] | inhibition of growth at 20 ppm [2] | pest or weed control at 200 ppm [3] | pest or weed control at 200 ppm (Phakopsora pachyrhizi)
